Measured values as given in patent US10617656B2, “Methods of increasing the cytotoxicity of chemotherapeutic agents with multisubstrate inhibitors of histone, protein-Lys, polyamine acetylation, and polyamine metabolism” (Vanderbilt University, priority 2010, dated 2020).

Assays:
H358 lung cancer cells [1] = experiment: [3H]-thymidine incorporation (DNA synthesis) assay in H358 cells; format: cell-based
Experimental: (§1) (A) Structures of 1a, and the acetylated side chain of a lysine residue within the polypeptide chain of a protein targeted by the acetylating enzyme (R1 and R2 are the main chain elements on both sides of the lysyl residue). (B) [^3H]-thymidine incorporation into DNA of H358 cells pulsed for 6 hrs at three different time points after the addition of increasing concentrations of 1a, i.e., at 6-12 hrs (12 hr curve), at 18-24 hours (24 hr curve), or at 42-48 hrs (48 hr curve). Incorporation is represented as a percentage relative to control (untreated) cells. (C) Cell cycle analysis of propidium iodide-stained cells harvested at various times after addition of 50 μM 1a. % of cells in G1, S, and G2 represents the average of two independent profiles. (D) Western analysis of histone H3 lysine 9 acetylation, histone H3 lysine 56 acetylation, histone H3 lysine 9 methylation, and total histone H3, before “c” or at the indicated times after addition of 50 μM 1a. Each lane represents 60 μg cellular protein.
(§2) Control cells were left untreated. […] Control cells were left untreated.
Cells were either labeled immediately before treatment (starting DNA synthesis rate), or subjected to the indicated treatments and then pulsed on successive days until day 4. DNA synthesis is represented as the percent of starting DNA synthesis rate. Viability was determined for each treatment condition 24 hours post-start of treatment by the trypan blue exclusion assay, with percentages of viable cells indicated to the right of the graph.
H358 cells (2,000/well) in 96-well plates were treated with 1, 10 or 50 μM of spd-1a, spd-2a, spd-3a, spm3, or spm2 for 12 hours. Triplicate wells of cells were pulsed 6 hours with 0.5 μCi [^3H]-thymidine (NEN, Boston Mass.) post-start of drug treatment, and harvested onto filter paper using a Brandel Harvester and subjected to scintillation counting. Untreated cells were pulsed from 0-6 hrs to establish the initial rate of incorporation.
Cells were plated in 96-well plates (2000 cells per well to insure conditions for exponential growth for untreated cells over the time course of the experiment) and exposed to the following treatments: 1a (50 μM); camptothecin (Sigma, St Louis, Mo. 5 nM, 18 hours); cisplatin (Platinol, obtained through local pharmacies, 2 μM, 1 hour 15 minutes), 5-fluorouracil (5FU, Adrucil™, obtained through local pharmacies, 2 μM, 1 hour 15 minutes), Taxotere (provided by the late Dr. Pierre Potier, 5 nM, 18 hours). UVC treatment (40 J/m^2) using a Stratalinker™, Stratagene, La Jolla, Calif.) was carried using medium lacking phenol red. At 0-6 hr, 18-24 hr (day 1), 42-48 hr […], 66-72 hr (day 3), and 90-96 hr (day 4) post-start of treatment, triplicate wells were incubated with 0.5 μCi [^3H]-thymidine (NEN, Boston Mass.), harvested onto filter paper, and subjected to scintillation counting. Trypan blue exclusion assays for cell membrane integrity were carried out as known in the art.
The present inventors used 96-well viability assays as described in Saadatmandi et al (Cancer Gene Therapy (2002) 9:[…]) to examine the effect of 1a on DNA synthesis in H358 cells, as well as the combined effects of 1a and chemotherapeutic agents. H358 cells were plated in 96-well plates at 3000 cells per well. […]

[2] = tested on: histone H3 lysine 9 acetylation in H358 cells; experiment: Western analysis of histone H3 acetylation/methylation in H358 cells; format: cell-based; conditions: 50 μM, 12 hours
Experimental: as §1
Each lane represents 175 μg cell lysate protein.
One 6 cm culture dish of H358 cells per treatment was used. Cells were treated with 50 μM spm-2, spm-3, or spd-3a for 12 hours. Histones were extracted from cells in 0.2M H2SO4 (as described in Furuta, T., et al (2003) J. Biol. Chem. 278: 20303-20312), followed by SDS-PAGE and Western blotting. Blots were probed with anti-acetyl histone H3-lysine 9 (Upstate Biotechnology, Inc.)
Cells were lysed by adding 1 mL of 0.2 M H2SO4. […]
One 10-cm plate of H358 lung cancer cells (about 2×10^6 cells), grown in DMEM+10% Fetal bovine serum as described in reference, were treated for 24 hours with 50 μM 1a inhibitor. […] Treated cells and untreated (control) cells were harvested by lysing in buffer containing 10 mM Hepes pH 7.5, 100 mM NaCl, 300 mM sucrose, 3 mM MgCl2, 1 mM EDTA, 1 mM DTT, 0.5% Triton X-100, 1 mM PMSF, protease inhibitor pellet (Roche) and analyzed on 10% SDS-PAGE gels, followed by Western immunoblot analysis of total histone H3, methylated histone H3 (methylated on lysine 9), and acetylated histone H3 (acetylated on lysine 9). […]

H358 lung cancer cells [3] = format: cell-based; conditions: CPT 5 nM 18 hours + 3a
Experimental: as §2
Cells were given fresh inhibitor on the first, second, and third days of treatment and viability was measured on the 4th day (i.e. 3 days post start of treatment). […]
(A) Structure of Spd-3a. (B) Western analysis of histone H3K9-acetylation and total histone H3, measured in control, untreated H358 lung cancer cells “C” or in H358 cells incubated 12 hours in the presence of 50 μM Spd-2a or Spd-3a. Each lane represents 60 μg cellular protein. (C) [3H]-thymidine incorporation (counts per minute) into DNA of H358 cells during a 6 hour pulse beginning at 42 hours post-start of treatment. Treatments were as follows (bars 1-6 left to right): (1) control: no treatment; (2) CPT alone: 5 nM 18 hours; (3) 3a alone: 50 μM; (4-6) 3a+CPT: CPT (5 nm, 18 hours)+3a at indicated dose. After 18 hours, CPT was removed and medium was replaced with fresh medium containing Spd-3a at the indicated dose. Each bar represents the average of triplicates. (D) 3-day 96-well viability assay of H358 cells grown in the presence of increasing amounts of Spd-2a or Spd-3a, with or without CPT (5 nM 18 hours). […] Each data point represents the average of three wells.
Date of exp: Jul. […] Date of exp: Sep.
(§3) Cells were plated in 96-well plates at 2000 cells per well and treated with the indicated doses of spd-3a. Cell viability was measured by the MTS assay 3 days later.
DLD-1 cells or H358 cells were plated in 96-well plates at 2000 cells per well and treated with the indicated doses of (A) spm-3 or (B) spm-2. (C) Cell viability was measured by the MTS assay 3 days later. Similar experiment using GT41 fibroblasts with spm2 or spm 3. Each assay point represents an average of duplicates. […]

[4] = In vivo toxicity in nude mice (tail vein injection); conditions: 100 μl of 5 mM, approximately 10 mg/kg, twice per week for 3 weeks, 4 mice
Experimental: They injected a second set of 4 mice with 100 μl of spd-3a (5 mM, approximately 10 mg/kg, or about 0.25 mM initial blood concentration), twice per week for 3 weeks.

[5] = 96-well MTS viability assay, GT41F fibroblasts; format: cell-based, human; conditions: human, GT41F skin fibroblasts, spd-3a 1 μM, single agent, read-out: viability retained
Experimental: as §3
DLD-1 cells or H358 cells were plated in 96-well plates at 2000 cells per well and treated with the indicated doses of (A) spm-3 or (B) spm-2. (C) Cell viability was measured by the MTS assay 3 days later. Similar experiment using GT41 fibroblasts with spm2 or spm 3. Each assay point represents an average of duplicates.

[6] = tested on: endogenous HATs associated with solubilized chromatin; conditions: Parello et al. 1990; cited from earlier work
MCF7 breast cancer cells = conditions: 72 hr assay; DFMO 100 μM, 5FU 2 μM, doxorubicin 100 nM
Experimental: Viability was measured 3 days after the start of treatment and is expressed as a percentage of control (untreated) cell viability.
Each point is average of triplicates. […]
The present inventors carried out 96-well viability assays as we have previously described (Saadatmandi et al, Cancer Gene Therapy (2002) 9:830-9), in which MCF7 breast cancer cells were plated at 3000 cells per well. After overnight attachment, triplicate wells were treated with increasing doses of inhibitor 1a. Control wells were left untreated. After 3 days, cell viability was measured by the MTS assay, which measures the bioconversion of an uncolored substrate to a colored formazan derivative, and is proportional to cell number.

DLD-1 colon cancer = experiment: Nude mouse subcutaneous DLD-1 tumor model; format: in vivo; conditions: DFMO only, intratumoral 2 mg/kg
Experimental: Tumors were initiated By subcutaneous implantation of […] DLD-1 colon cancer cells. […] Tumors were measured and volumes calculated as in FIG. 14.
Tumors were initiated by injecting 10^6 DLD-1 cells (from ATCC) per mouse (female nude mouse, 4-5 weeks, Harlan Labs) subcutaneously in the flank. (A) When the average tumor size reached 26 mm^3, animals were randomized into 2 groups (3 per group). One group was left untreated and served as the control (-●-). […] Tumors were measured bidirectionally at 2-3 day intervals and tumor volumes were calculated (v=½ L×w^2). A paired t-test was used to evaluate the significance of the differences between the two groups of animals. […] (B) Tumors were initiated as in part (A). When tumors reached an average size of about 30 mm^3, animals were randomized into three groups of 2 animals each. The control group (-●-) received no treatment. The DFMO group (-▪-) received intratumoral injections of DFMO (2 mg/kg) on days 1, 7, 9 (5 PM), and 2, 8, 10 (9 AM, 5 PM). […] Tumors were measured and volumes calculated as in part (A). A paired t-test was used to evaluate the significance of the difference between the curves.

[7] = tested on: MDA MB-435 breast cancer cells; experiment: 72 hr viability assay, MDA MB-435; format: cell-based; conditions: 72 hr assay; DFMO 100 μM, 5FU 2 μM, doxorubicin 100 nM

Compound | inhibition of DNA synthesis (H358 lung cancer cells [1]; 1, 10 or 50 μM, 12 hours) | suppression of DNA synthesis in combination with camptothecin (H358 lung cancer cells [1]; CPT 5 nM 18 hours + 3a, pulse at 42 hours) | histone H3K9 acetylation (Western) [2] | histone H3K9 acetylation (Western) ([2]; listed as spd-3a) | suppression of 3-day cell viability in combination with camptothecin (H358 lung cancer cells [3]) | signs of toxicity [4] | viability at 3 days, 1 µM [5] | inhibitory effect on endogenous HATs, compared with Spd-2a [6] | effect as single agent on viability (MCF7 breast cancer cells) | difference between control and treated tumor curves (DLD-1 colon cancer) | effect as single agent on viability [7]
CC(=O)NCCSCC(=O)NCCCNCCCCN [3a] | inhibit DNA synthesis | effective | nearly complete ablation | suppress histone acetylation | effective | no signs of distress or illness | ~60% | lower inhibitory effect than Spd-2a | – | – | –
NCCC[C@](N)(C(=O)O)C(F)F [DFMO, α-difluoromethylornithine] | – | – | – | – | – | – | – | – | ineffective | not significant | ineffective
